Assay results: ChEMBL document CHEMBL3885861, “Open TG-GATES”

Species: Rattus norvegicus
Assay: Open TG-GATES - Regimen: Single
Type: toxicity, organism-based, Sprague-Dawley
Design: regimen Single, gender Male, age 6 weeks
Details: in vivo, po, route gavage; for gamma-GTP / ALT / AST / BUN / CRE / DBIL / GLC / IP / K / PL / RALB / TBIL / TC / TG / TP / ALP: tissue Plasma; for Bas / Eos / Fbg / Ht / MCHC / Mono / RBC / Ret: tissue Blood; for KIDNEY_L / KIDNEY_R / KIDNEY_TOTAL: tissue Kidney; for LIVER: tissue Liver
[1] = 1000 mg/kg, 3 h, dose level High
[2] = 1000 mg/kg, 6 h, dose level High
[3] = 1000 mg/kg, 9 h, dose level High
[4] = 1000 mg/kg, 24 h, dose level High

Molecule `CC(C)OC(=O)C(C)(C)Oc1ccc(C(=O)c2ccc(Cl)cc2)cc1` [FENOFIBRATE] has a gamma-GTP (100 mg/kg, 24 h, dose level Middle) of 1 IU/L, a Bas [1] of 0.2% and an Eos [1] of 0.6%. The Fbg [1] was 271.2 mg/dL, the Ht [1] was 40.6% and the MCHC [1] was 32.5%. For the same molecule, the Mono [1] was 3.4%, the RBC [1] was 616.6 x10_4/ul and the Ret [1] was 10.6%. The KIDNEY_L [1] was 0.8 g, the KIDNEY_R [1] was 0.8 g and the KIDNEY_TOTAL [1] was 1.6 g. It also gave an LIVER [1] of 7.4 g, an ALT [1] of 43.2 IU/L and an AST [1] of 76.6 IU/L. For the same molecule, the BUN [1] was 8.2 mg/dL, the CRE [1] was 0.2 mg/dL and the DBIL [1] was 0.018 mg/dL. For the same molecule, the GLC [1] was 173.6 mg/dL, the IP [1] was 9.3 mg/dL and the K [1] was 4.3 meq/L. For the same molecule, the PL [1] was 123.2 mg/dL, the RALB [1] was 2.5 g/dL and the TBIL [1] was 0.062 mg/dL. It also gave a TC [1] of 64.8 mg/dL, a TG [1] of 28 mg/dL and a TP [1] of 5.3 g/dL. The gamma-GTP [1] was 1.6 IU/L, the Bas [2] was 0% and the Eos [2] was 0.6%. For the same molecule, the Fbg [2] was 253.6 mg/dL, the Ht [2] was 39.6% and the MCHC [2] was 32.5%. The Mono [2] was 2.4%, the RBC [2] was 609.8 x10_4/ul and the Ret [2] was 10%. It also gave a KIDNEY_L [2] of 0.8 g, a KIDNEY_R [2] of 0.8 g and a KIDNEY_TOTAL [2] of 1.6 g. It also gave an LIVER [2] of 7.4 g, an ALP [2] of 1256 IU/L and an ALT [2] of 43.4 IU/L. It also gave an AST [2] of 75.4 IU/L, a BUN [2] of 7 mg/dL and a CRE [2] of 0.2 mg/dL. It also gave a DBIL [2] of 0.02 mg/dL, a GLC [2] of 170.4 mg/dL and an IP [2] of 9 mg/dL. It also gave a K [2] of 4.2 meq/L, a PL [2] of 116.8 mg/dL and an RALB [2] of 2.5 g/dL. For the same molecule, the TBIL [2] was 0.058 mg/dL, the TC [2] was 60 mg/dL and the TG [2] was 28.6 mg/dL. The TP [2] was 5.2 g/dL, the gamma-GTP [2] was 1.2 IU/L and the Bas [3] was 0%. For the same molecule, the Eos [3] was 0.6%, the Fbg [3] was 283.6 mg/dL and the Ht [3] was 39.8%. For the same molecule, the MCHC [3] was 32.3%, the Mono [3] was 1.8% and the RBC [3] was 609.2 x10_4/ul. It also gave a Ret [3] of 8.8%, a KIDNEY_L [3] of 0.8 g and a KIDNEY_R [3] of 0.8 g. The KIDNEY_TOTAL [3] was 1.6 g, the LIVER [3] was 6.9 g and the ALP [3] was 1470.4 IU/L. For the same molecule, the ALT [3] was 48.4 IU/L, the AST [3] was 90.4 IU/L and the BUN [3] was 8 mg/dL. For the same molecule, the CRE [3] was 0.2 mg/dL, the DBIL [3] was 0.014 mg/dL and the GLC [3] was 152.2 mg/dL. For the same molecule, the IP [3] was 8.5 mg/dL, the K [3] was 3.8 meq/L and the PL [3] was 119 mg/dL. For the same molecule, the RALB [3] was 2.5 g/dL, the TBIL [3] was 0.048 mg/dL and the TC [3] was 62.4 mg/dL. The TG [3] was 32.2 mg/dL, the TP [3] was 5.3 g/dL and the gamma-GTP [3] was 1 IU/L. It also gave a Bas [4] of 0%, an Eos [4] of 1% and a Fbg [4] of 259 mg/dL. For the same molecule, the Ht [4] was 39.4%, the MCHC [4] was 32.5% and the Mono [4] was 3.6%. It also gave an RBC [4] of 603.8 x10_4/ul, a Ret [4] of 9.1% and a KIDNEY_L [4] of 0.8 g. The KIDNEY_R [4] was 0.8 g, the KIDNEY_TOTAL [4] was 1.7 g and the LIVER [4] was 9.6 g. The ALT [4] was 53 IU/L, the AST [4] was 84.4 IU/L and the BUN [4] was 13.6 mg/dL. The CRE [4] was 0.2 mg/dL, the DBIL [4] was 0.014 mg/dL and the GLC [4] was 172.2 mg/dL. The IP [4] was 8.7 mg/dL, the K [4] was 4.3 meq/L and the PL [4] was 112.4 mg/dL. For the same molecule, the RALB [4] was 2.5 g/dL, the TBIL [4] was 0.048 mg/dL and the TC [4] was 57.2 mg/dL. It also gave a TG [4] of 31.6 mg/dL, a TP [4] of 5.3 g/dL and a gamma-GTP [4] of 1 IU/L.
